Results reported in ChEMBL document CHEMBL5724914, “Linking interpersonal differences in gut microbiota composition and drug biotransformation activity” (2024).

Assay: (§1) The drug is tested on WLS-086 corresponding to human gut metagenome with ENA study accession number: PRJEB37062 and ENA sample accession number: ERS12561752 for biotransformation under anaerobic condition. The drug concentrations were measured over 9 timepoints collected between 0 and 24 hours of incubation by liquid-chromatography-coupled mass spectrometry (LC–MS)
Conditions: 2 µM
Also: call rule not given here.

Bacterial Biotransformation | SMILES
Compound NOT metabolized | CN1C(C(=O)Nc2ccccn2)=C(O)c2sccc2S1(=O)=O [TENOXICAM]
Compound metabolized | NC(CO)(CO)CO.O=C(c1ccccc1)c1ccc2n1CCC2C(=O)O (stereo not given) [KETOROLAC TROMETHAMINE]
Compound metabolized | O=C1[C@H](CC[C@H](O)c2ccc(F)cc2)[C@@H](c2ccc(O)cc2)N1c1ccc(F)cc1 [EZETIMIBE]
Compound metabolized | CCN(CC)CCNC(C(=O)OCCC(C)C)c1ccccc1.Cl.Cl (stereo not given)

Assay: as §1, with “Z-018” for “WLS-086”, “pig” for “human”, “ERS12561817” for “ERS12561752”
Conditions: 2 µM

Bacterial Biotransformation | SMILES
Compound NOT metabolized | CN1C(C(=O)Nc2ccccn2)=C(O)c2sccc2S1(=O)=O [TENOXICAM]
Compound NOT metabolized | NC(CO)(CO)CO.O=C(c1ccccc1)c1ccc2n1CCC2C(=O)O (stereo not given) [KETOROLAC TROMETHAMINE]
Compound NOT metabolized | O=C1[C@H](CC[C@H](O)c2ccc(F)cc2)[C@@H](c2ccc(O)cc2)N1c1ccc(F)cc1 [EZETIMIBE]
Compound metabolized | CCN(CC)CCNC(C(=O)OCCC(C)C)c1ccccc1.Cl.Cl (stereo not given)

Conditions: human gut metagenome, 24 h, 2 µM

Bacterial Biotransformation | SMILES
Compound NOT metabolized | CN1C(C(=O)Nc2ccccn2)=C(O)c2sccc2S1(=O)=O [TENOXICAM]
Compound metabolized | NC(CO)(CO)CO.O=C(c1ccccc1)c1ccc2n1CCC2C(=O)O (stereo not given) [KETOROLAC TROMETHAMINE]
Compound metabolized | O=C1[C@H](CC[C@H](O)c2ccc(F)cc2)[C@@H](c2ccc(O)cc2)N1c1ccc(F)cc1 [EZETIMIBE]
Compound metabolized | CCN(CC)CCNC(C(=O)OCCC(C)C)c1ccccc1.Cl.Cl (stereo not given)

Assay: as §1, with “Z-014” for “WLS-086”, “rat” for “human”, “ERS12561814” for “ERS12561752”
Conditions: 2 µM

Bacterial Biotransformation | SMILES
Compound NOT metabolized | CN1C(C(=O)Nc2ccccn2)=C(O)c2sccc2S1(=O)=O [TENOXICAM]
Compound NOT metabolized | NC(CO)(CO)CO.O=C(c1ccccc1)c1ccc2n1CCC2C(=O)O (stereo not given) [KETOROLAC TROMETHAMINE]
Compound NOT metabolized | O=C1[C@H](CC[C@H](O)c2ccc(F)cc2)[C@@H](c2ccc(O)cc2)N1c1ccc(F)cc1 [EZETIMIBE]
Compound NOT metabolized | CCN(CC)CCNC(C(=O)OCCC(C)C)c1ccccc1.Cl.Cl (stereo not given)

Conditions: human gut metagenome, 24 h, 2 µM
Remark: another data set of the same source

Bacterial Biotransformation | SMILES
Compound NOT metabolized | CN1C(C(=O)Nc2ccccn2)=C(O)c2sccc2S1(=O)=O [TENOXICAM]
Compound metabolized | NC(CO)(CO)CO.O=C(c1ccccc1)c1ccc2n1CCC2C(=O)O (stereo not given) [KETOROLAC TROMETHAMINE]
Compound metabolized | O=C1[C@H](CC[C@H](O)c2ccc(F)cc2)[C@@H](c2ccc(O)cc2)N1c1ccc(F)cc1 [EZETIMIBE]
Compound metabolized | CCN(CC)CCNC(C(=O)OCCC(C)C)c1ccccc1.Cl.Cl (stereo not given)

Assay: as §1, with “Z-023” for “WLS-086”, “to” for “to human gut”, “ERS12561822” for “ERS12561752”
Conditions: 2 µM

Bacterial Biotransformation | SMILES
Compound metabolized | CN1C(C(=O)Nc2ccccn2)=C(O)c2sccc2S1(=O)=O [TENOXICAM]
Compound metabolized | NC(CO)(CO)CO.O=C(c1ccccc1)c1ccc2n1CCC2C(=O)O (stereo not given) [KETOROLAC TROMETHAMINE]
Compound metabolized | O=C1[C@H](CC[C@H](O)c2ccc(F)cc2)[C@@H](c2ccc(O)cc2)N1c1ccc(F)cc1 [EZETIMIBE]
Compound NOT metabolized | CCN(CC)CCNC(C(=O)OCCC(C)C)c1ccccc1.Cl.Cl (stereo not given)

Conditions: human gut metagenome, 24 h, 2 µM
Remark: another data set of the same source

Bacterial Biotransformation | SMILES
Compound NOT metabolized | CN1C(C(=O)Nc2ccccn2)=C(O)c2sccc2S1(=O)=O [TENOXICAM]
Compound metabolized | NC(CO)(CO)CO.O=C(c1ccccc1)c1ccc2n1CCC2C(=O)O (stereo not given) [KETOROLAC TROMETHAMINE]
Compound NOT metabolized | O=C1[C@H](CC[C@H](O)c2ccc(F)cc2)[C@@H](c2ccc(O)cc2)N1c1ccc(F)cc1 [EZETIMIBE]
Compound NOT metabolized | CCN(CC)CCNC(C(=O)OCCC(C)C)c1ccccc1.Cl.Cl (stereo not given)

Conditions: human gut metagenome, 24 h, 2 µM
Remark: another data set of the same source

Bacterial Biotransformation | SMILES
Compound NOT metabolized | CN1C(C(=O)Nc2ccccn2)=C(O)c2sccc2S1(=O)=O [TENOXICAM]
Compound metabolized | NC(CO)(CO)CO.O=C(c1ccccc1)c1ccc2n1CCC2C(=O)O (stereo not given) [KETOROLAC TROMETHAMINE]
Compound NOT metabolized | O=C1[C@H](CC[C@H](O)c2ccc(F)cc2)[C@@H](c2ccc(O)cc2)N1c1ccc(F)cc1 [EZETIMIBE]
Compound metabolized | CCN(CC)CCNC(C(=O)OCCC(C)C)c1ccccc1.Cl.Cl (stereo not given)

Conditions: human gut metagenome, 24 h, 2 µM
Remark: another data set of the same source

Bacterial Biotransformation | SMILES
Compound NOT metabolized | CN1C(C(=O)Nc2ccccn2)=C(O)c2sccc2S1(=O)=O [TENOXICAM]
Compound metabolized | NC(CO)(CO)CO.O=C(c1ccccc1)c1ccc2n1CCC2C(=O)O (stereo not given) [KETOROLAC TROMETHAMINE]
Compound NOT metabolized | O=C1[C@H](CC[C@H](O)c2ccc(F)cc2)[C@@H](c2ccc(O)cc2)N1c1ccc(F)cc1 [EZETIMIBE]
Compound metabolized | CCN(CC)CCNC(C(=O)OCCC(C)C)c1ccccc1.Cl.Cl (stereo not given)

Conditions: human gut metagenome, 24 h, 2 µM
Remark: another data set of the same source

Bacterial Biotransformation | SMILES
Compound NOT metabolized | CN1C(C(=O)Nc2ccccn2)=C(O)c2sccc2S1(=O)=O [TENOXICAM]
Compound metabolized | NC(CO)(CO)CO.O=C(c1ccccc1)c1ccc2n1CCC2C(=O)O (stereo not given) [KETOROLAC TROMETHAMINE]
Compound NOT metabolized | O=C1[C@H](CC[C@H](O)c2ccc(F)cc2)[C@@H](c2ccc(O)cc2)N1c1ccc(F)cc1 [EZETIMIBE]
Compound metabolized | CCN(CC)CCNC(C(=O)OCCC(C)C)c1ccccc1.Cl.Cl (stereo not given)

Conditions: human gut metagenome, 24 h, 2 µM
Remark: another data set of the same source

Bacterial Biotransformation | SMILES
Compound NOT metabolized | CN1C(C(=O)Nc2ccccn2)=C(O)c2sccc2S1(=O)=O [TENOXICAM]
Compound metabolized | NC(CO)(CO)CO.O=C(c1ccccc1)c1ccc2n1CCC2C(=O)O (stereo not given) [KETOROLAC TROMETHAMINE]
Compound NOT metabolized | O=C1[C@H](CC[C@H](O)c2ccc(F)cc2)[C@@H](c2ccc(O)cc2)N1c1ccc(F)cc1 [EZETIMIBE]
Compound metabolized | CCN(CC)CCNC(C(=O)OCCC(C)C)c1ccccc1.Cl.Cl (stereo not given)

Assay: as §1, with “Z-016” for “WLS-086”, “mouse” for “human”, “ERS12561815” for “ERS12561752”
Conditions: 2 µM

Bacterial Biotransformation | SMILES
Compound NOT metabolized | CN1C(C(=O)Nc2ccccn2)=C(O)c2sccc2S1(=O)=O [TENOXICAM]
Compound metabolized | NC(CO)(CO)CO.O=C(c1ccccc1)c1ccc2n1CCC2C(=O)O (stereo not given) [KETOROLAC TROMETHAMINE]
Compound NOT metabolized | O=C1[C@H](CC[C@H](O)c2ccc(F)cc2)[C@@H](c2ccc(O)cc2)N1c1ccc(F)cc1 [EZETIMIBE]
Compound NOT metabolized | CCN(CC)CCNC(C(=O)OCCC(C)C)c1ccccc1.Cl.Cl (stereo not given)

Conditions: human gut metagenome, 24 h, 2 µM
Remark: another data set of the same source

Bacterial Biotransformation | SMILES
Compound metabolized | CN1C(C(=O)Nc2ccccn2)=C(O)c2sccc2S1(=O)=O [TENOXICAM]
Compound metabolized | NC(CO)(CO)CO.O=C(c1ccccc1)c1ccc2n1CCC2C(=O)O (stereo not given) [KETOROLAC TROMETHAMINE]
Compound NOT metabolized | O=C1[C@H](CC[C@H](O)c2ccc(F)cc2)[C@@H](c2ccc(O)cc2)N1c1ccc(F)cc1 [EZETIMIBE]
Compound NOT metabolized | CCN(CC)CCNC(C(=O)OCCC(C)C)c1ccccc1.Cl.Cl (stereo not given)

Assay: as §1, with “Z-030” for “WLS-086”, “mouse” for “human”, “ERS12561829” for “ERS12561752”
Conditions: 2 µM

Bacterial Biotransformation | SMILES
Compound NOT metabolized | CN1C(C(=O)Nc2ccccn2)=C(O)c2sccc2S1(=O)=O [TENOXICAM]
Compound NOT metabolized | NC(CO)(CO)CO.O=C(c1ccccc1)c1ccc2n1CCC2C(=O)O (stereo not given) [KETOROLAC TROMETHAMINE]
Compound NOT metabolized | O=C1[C@H](CC[C@H](O)c2ccc(F)cc2)[C@@H](c2ccc(O)cc2)N1c1ccc(F)cc1 [EZETIMIBE]
Compound NOT metabolized | CCN(CC)CCNC(C(=O)OCCC(C)C)c1ccccc1.Cl.Cl (stereo not given)

Assay: as §1, with “Z-019” for “WLS-086”, “rat” for “human”, “ERS12561818” for “ERS12561752”
Conditions: 2 µM

Bacterial Biotransformation | SMILES
Compound NOT metabolized | CN1C(C(=O)Nc2ccccn2)=C(O)c2sccc2S1(=O)=O [TENOXICAM]
Compound NOT metabolized | NC(CO)(CO)CO.O=C(c1ccccc1)c1ccc2n1CCC2C(=O)O (stereo not given) [KETOROLAC TROMETHAMINE]
Compound NOT metabolized | O=C1[C@H](CC[C@H](O)c2ccc(F)cc2)[C@@H](c2ccc(O)cc2)N1c1ccc(F)cc1 [EZETIMIBE]
Compound NOT metabolized | CCN(CC)CCNC(C(=O)OCCC(C)C)c1ccccc1.Cl.Cl (stereo not given)

Assay: as §1, with “WLS-310” for “WLS-086”, “ERS12561785” for “ERS12561752”
Conditions: 2 µM

Bacterial Biotransformation | SMILES
Compound NOT metabolized | CN1C(C(=O)Nc2ccccn2)=C(O)c2sccc2S1(=O)=O [TENOXICAM]
Compound metabolized | NC(CO)(CO)CO.O=C(c1ccccc1)c1ccc2n1CCC2C(=O)O (stereo not given) [KETOROLAC TROMETHAMINE]
Compound NOT metabolized | O=C1[C@H](CC[C@H](O)c2ccc(F)cc2)[C@@H](c2ccc(O)cc2)N1c1ccc(F)cc1 [EZETIMIBE]
Compound metabolized | CCN(CC)CCNC(C(=O)OCCC(C)C)c1ccccc1.Cl.Cl (stereo not given)

Conditions: human gut metagenome, 24 h, 2 µM
Remark: another data set of the same source

Bacterial Biotransformation | SMILES
Compound NOT metabolized | CN1C(C(=O)Nc2ccccn2)=C(O)c2sccc2S1(=O)=O [TENOXICAM]
Compound metabolized | NC(CO)(CO)CO.O=C(c1ccccc1)c1ccc2n1CCC2C(=O)O (stereo not given) [KETOROLAC TROMETHAMINE]
Compound metabolized | O=C1[C@H](CC[C@H](O)c2ccc(F)cc2)[C@@H](c2ccc(O)cc2)N1c1ccc(F)cc1 [EZETIMIBE]
Compound metabolized | CCN(CC)CCNC(C(=O)OCCC(C)C)c1ccccc1.Cl.Cl (stereo not given)

Conditions: human gut metagenome, 24 h, 2 µM
Remark: another data set of the same source

Bacterial Biotransformation | SMILES
Compound NOT metabolized | CN1C(C(=O)Nc2ccccn2)=C(O)c2sccc2S1(=O)=O [TENOXICAM]
Compound metabolized | NC(CO)(CO)CO.O=C(c1ccccc1)c1ccc2n1CCC2C(=O)O (stereo not given) [KETOROLAC TROMETHAMINE]
Compound NOT metabolized | O=C1[C@H](CC[C@H](O)c2ccc(F)cc2)[C@@H](c2ccc(O)cc2)N1c1ccc(F)cc1 [EZETIMIBE]
Compound metabolized | CCN(CC)CCNC(C(=O)OCCC(C)C)c1ccccc1.Cl.Cl (stereo not given)

Conditions: human gut metagenome, 24 h, 2 µM
Remark: another data set of the same source

Bacterial Biotransformation | SMILES
Compound NOT metabolized | CN1C(C(=O)Nc2ccccn2)=C(O)c2sccc2S1(=O)=O [TENOXICAM]
Compound metabolized | NC(CO)(CO)CO.O=C(c1ccccc1)c1ccc2n1CCC2C(=O)O (stereo not given) [KETOROLAC TROMETHAMINE]
Compound NOT metabolized | O=C1[C@H](CC[C@H](O)c2ccc(F)cc2)[C@@H](c2ccc(O)cc2)N1c1ccc(F)cc1 [EZETIMIBE]
Compound metabolized | CCN(CC)CCNC(C(=O)OCCC(C)C)c1ccccc1.Cl.Cl (stereo not given)

Assay: as §1, with “Z-025” for “WLS-086”, “rabbit” for “human”, “ERS12561824” for “ERS12561752”
Conditions: 2 µM

Bacterial Biotransformation | SMILES
Compound metabolized | CN1C(C(=O)Nc2ccccn2)=C(O)c2sccc2S1(=O)=O [TENOXICAM]
Compound NOT metabolized | NC(CO)(CO)CO.O=C(c1ccccc1)c1ccc2n1CCC2C(=O)O (stereo not given) [KETOROLAC TROMETHAMINE]
Compound NOT metabolized | O=C1[C@H](CC[C@H](O)c2ccc(F)cc2)[C@@H](c2ccc(O)cc2)N1c1ccc(F)cc1 [EZETIMIBE]
Compound NOT metabolized | CCN(CC)CCNC(C(=O)OCCC(C)C)c1ccccc1.Cl.Cl (stereo not given)
